Assay results as given in US20050222266A1, “2-indanylamino derivatives for the therapy of chronic pain” (priority 2002, published 2005).
Where a name gives a salt, the structure may show the parent alone.

Columns and labels:
[1] = test system: acute pain, hot plate 55° C.; assay: hot-plate test, mice; type: in vivo; conditions: 15 min
Description: (§1) The effect of CHF 3381 was studied in acute pain with hot-plate test described by Eddy et al (1953). The test was performed on an electrically heated and thermostatically controlled copper surface, set to a temperature of 55 or 51° C. with mice and rats, respectively.
(§2) The animals were confined to the hot plate by a transparent observation chamber and the latency to the response consisting of licking of the hind paws, was measured. A cut-off period of 60 sec was used to avoid tissue damage.
(§3) After i.p. administration, CHF 3381 (30-45-60 and 100 mg/kg in mouse; 30-37-45 and 60 mg/kg in rats), produced a significant and dose-dependent increase in the latency of the hindpaw licking response compared to vehicle-treated animals (Table 6).

[2] = test system: formalin-induced licking and flinching; assay: mouse formalin test, 9 day treatment (tolerance); type: in vivo, mice
Description: The mice paw formalin test was performed as described by Wheeler-Aceto et al. (Psychopharmacology 104:35-44, 1991). Briefly, the day before the formalin injection, mice were placed individually into clear plastic cylinders for 30 minutes of adaptation. The day of testing 20 μl of 1% formalin was injected into the plantar surface of the left hind paw and the animals were again placed into the plastic cylinder for the behavioural observation. The amount of time, in seconds, the animals spent licking and flinching (L/F) the injected paw for the first 5 min (early phase), and then from 10 to 40 min(late phase) after formalin injection, was used as measurement of intensity of pain. CHF 3381 10-100 mg/kg i.p. and 25-200 mg/kg p.o. or the corresponding vehicles, were administered 15 and 30 min before formalin injection, respectively.
Moreover, the formalin test was used to examine whether tolerance develops with respect to the antihyperalgesic effect of CHF 3381 after chronic treatment in comparison with the standard opioid morphine. Briefly, mice were divided randomly into five groups (12 mice per group) and administered once daily for 8 days as follows: three groups with saline i.p., one group with CHF 3381 60 mg/kg i.p. and one group with morphine 20 mg/kg i.p. On ninth day these groups were treated in following way: one saline pre-treated group was treated with saline i.p. (g1); two saline pre-treated group were treated with CHF 3381 30 mg/kg i.p. (g2) and with morphine 6 mg/kg i.p. (g3), respectively; the group pre-treated with CHF 3381 60 mg/kg was treated with CHF 3381 30 mg/kg i.p. (g4) and the group pre-treated with morphine 20 mg/kg was treated with morphine 6 mg/kg i.p.(g5), a dose that was previously shown to be active in the formalin test. CHF 3381 and morphine were administered 15 and 30 min before formalin injection, respectively.

[3] = test system: acute pain, hot plate 51° C.; assay: hot-plate test, rats; type: in vivo; conditions: 15 min
Description: as §1, §2, §3

[4] = biological target: NMDA receptors channels; conditions: displacement of [3H]-TPC; cited from earlier work
[5] = test system: mechanical hyperalgesia in streptozotocin (STZ)-induced diabetic neuropathy; assay: streptozotocin-induced diabetic neuropathy, paw pressure test; type: in vivo, rat; conditions: for Nociceptive threshold: 60 minutes before measurement; for % variation of the nociceptive threshold: vs vehicle-treated diabetic group
Description: The objective of this study was to assess the antinociceptive effects of CHF 3381 (25, 50 and 100 mg/kg p.o.) and gabapentin (100 mg/kg p.o) on mechanical hyperalgesia in streptozotocin (STZ)-induced diabetic neuropathy in rats. Diabetes was induced by intraperitoneal injection of STZ (75 mg/kg), and 23 days later its presence was confirmed by measuring of tail vein blood glucose levels and only rats with […] were included in the study.
After 25 days, distilled water, CHF3381 and gabapentin were administered 60 minutes before pain measurement. The nociceptive threshold was evaluated in all groups using a mechanical nociceptive stimulation (paw pressure test).
An increasing pressure (grams of contact pressure) was applied onto the both hind paws of the animal until a nociceptive reaction (vocalisation or paw withdrawal) was determined. The results, expressed as the percentage variation of the nociceptive threshold calculated respect the mean value of the vehicle-treated diabetic group, are reported in Table 2.

[6] = test system: seizure models; conditions: in vivo; cited from earlier work
[7] = test system: MAO (mono amino oxidase); assay: MAO inhibiting activity; type: biochemical
[8] = rotarod test, mice; conditions: mouse, in vivo, 15 min before test
Description: The side-effect profile of CHF 3381 was then evaluated in the rotarod test both in mice and rats. The day before the execution of the test, mice and rats were trained to maintain their equilibrium on the test apparatus. For mice, training consisted of 3 subsequent 2 min attempts on a rod rotating from 4.5 r.p.m. to 16.5 r.p.m.; for rats, of 3 subsequent 1 min attempts at 8 rpm (Kinnard and Carr, 1957). The morning of the test day, mice and rats were again tested on the rotarod and only animals able to maintain their equilibrium on the rod were retained for the experimental procedure. CHF 3381 was administered p.o. or i.p. to groups of at least 8 animals 15 min (time of peak effect for neurotoxicity) before the execution of the test. All controls received the corresponding vehicle. The number of mice falling during a 2-min test period and the number of rats falling for 3 subsequent 1-min attempts were used for the calculation of the respective doses at which 50% of the animals display neurotoxicity (TD50).

[9] = test system: ion channel associated to NMDA receptors; assay: inhibiting activity on NMDA-associated ion channel; type: biochemical
[10] = test system: rat MES model; conditions: cited from earlier work
[11] = G2: 30 mg/kg i.p. on ninth day after 8 days saline
[12] = G4: 30 mg/kg i.p. on ninth day after 8 days CHF 3381 60 mg/kg i.p.

Which “latency of the hindpaw licking response” value ([1]; 30 mg/kg i.p.) does the source give for `NC(=O)CNC1Cc2ccccc2C1` [CHF 3381, N-2(indanyl)-glicinamide hydrochloride] here?
Its value is 19.40 ± 1.37 s.

What about the “latency of the hindpaw licking response” value ([1]; 45 mg/kg i.p.) of the same compound?
Its value is 20.16 ± 1.73 s.

And the “latency of the hindpaw licking response” value ([1]; 60 mg/kg i.p.)?
Its value is 26.95 ± 2.45 s.

And the “latency of the hindpaw licking response” value ([1]; 100 mg/kg i.p.)?
The value was 37.71 ± 3.17 s.

And the Early phase [2, 11]?
Its Early phase is 53 ± 8 s.

What about the Late phase [2, 11] of the same compound?
The Late phase was 91 ± 21 s.

What about the Early phase [2, 12] of the same compound?
Its Early phase is 56 ± 6 s.

What about the Late phase [2, 12] of the same compound?
Its Late phase is 74 ± 21 s.

And the “antihyperalgesic action after chronic treatment (tolerance)” value ([2]; once daily for 8 days, test on ninth day)?
Its value is “lack of development of tolerance”.

And the “latency of the hindpaw licking response” value ([3]; 30 mg/kg i.p.)?
Its value is 22.44 ± 2.07 s.

And the “latency of the hindpaw licking response” value ([3]; 37 mg/kg i.p.)?
Its value is 26.24 ± 2.22 s.

What about the “latency of the hindpaw licking response” value ([3]; 45 mg/kg i.p.) of the same compound?
The value was 39.59 ± 3.56 s.

What about the “latency of the hindpaw licking response” value ([3]; 60 mg/kg i.p.) of the same compound?
Its value is 42.80 ± 3.27 s.

What about the Ki [4] of the same compound?
The Ki was 8.8 µM.

What about the Nociceptive threshold ([5]; 25 mg/kg p.o.) of the same compound?
Its Nociceptive threshold is 250.0 ± 17.0 g.

And the “% variation of the nociceptive threshold” value ([5]; 25 mg/kg p.o.)?
The value was 83%.

And the Nociceptive threshold ([5]; 50 mg/kg p.o.)?
Its Nociceptive threshold is 319.2 ± 48.5 g.

And the “% variation of the nociceptive threshold” value ([5]; 50 mg/kg p.o.)?
The value was 134%.

What about the Nociceptive threshold ([5]; 100 mg/kg p.o.) of the same compound?
Its Nociceptive threshold is 287.5 ± 20.3 g.

What about the “% variation of the nociceptive threshold” value ([5]; 100 mg/kg p.o.) of the same compound?
Its value is 110%.

And the “antagonism of 4-aminopyridine- and bicuculline-induced tonic seizures” value [6]?
The value was “weaker antagonist”.

And the “behavioral effects and lethality of systematically administered NMDA” value [6]?
The value was “antagonize”.

And the “effect against maximal electroshock seizures, picrotoxin- and NMDA-induced hind limb tonic extension” value [6]?
The value was “very effective”.

What about the “effect against pentylentetrazole- and picrotoxin-induced clonic seizures” value [6] of the same compound?
The value was “ineffective”.

And the “inhibiting activity towards MAO” value [7]?
The value was “inhibiting activity”.

What about the TD50 at 15 min ([8]; ip, i.p. administration) of the same compound?
Its TD50 at 15 min is 96 mg/kg.

And the TD50 at 15 min ([8]; oral administration)?
The TD50 at 15 min was 233 mg/kg.

And the “inhibiting activity towards ion channel associated to NMDA receptors” value [9]?
The value was “inhibiting activity”.

What about the anti-convulsivant activity [10] of the same compound?
Its anti-convulsivant activity is “anti-convulsivant activity”.
